Here are results for 8 compounds from PubChem BioAssay (NCI).

Test in all cases: inhibition of tumour cell growth, NCI panel, 48 h
The test system of test [1] is 786-0 renal.
The test system of test [2] is SK-MEL-5 melanoma.
In test [3] the test system is TK-10 renal.
For test [4], the system named is UACC-257 melanoma.
Test [5] has as its system HCC-2998 colon.
Test [6] has as its system MCF7 breast.
For test [7], the system named is RPMI-8226 leukemia.
Test [8] has as its system U251 CNS.
Test [9] has as its system SR leukemia.
Test [10] concerns OVCAR-5 ovarian.

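Values below derive from 48-hour exposures of cells grown in 96-well plates, with endpoints linearly interpolated between the two concentrations bracketing the appropriate inhibition level. The concentration for 50% growth inhibition is given as GI50. TGI marks complete inhibition of growth.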

Consider `COc1cc2cc(Oc3ccc(NC(=O)c4ccc(Cl)c(Cl)c4)cc3)c(C)nc2cc1OC`, for which the GI50 was > 100 µM in [1]; 4.99 µM in test [2]; 9.81 µM in test [3]; > 100 µM in [4]; > 100 µM in [5]; 5.32 µM in test [6]. Further, the GI50 is 3.7 µM in test [7], > 100 µM in test [8], 19.6 µM in test [9] and > 100 µM in test [10]. Moreover, the TGI in test [1], in test [2], in test [3], in [4], in test [5] and in [6] was > 100 µM in each case. Moreover, the TGI in test [7], in [8], in [9] and in [10] was > 100 µM in each case.

For `COc1ccc(/C=C(\C)[N+](=O)[O-])cc1OC`, the GI50 was 1.93 µM in test [1]; 2.19 µM in test [2]; 1.55 µM in test [3]; 1.88 µM in test [4]; 1.82 µM in [5]; 1.35 µM in [6]. Also, the GI50 in test [7] was 2.3 µM; in [8] it was 4.39 µM; in test [9] it was 2.04 µM; in test [10], 1.73 µM. Further, the TGI in test [1] came to 3.57 µM; in test [2], 5.11 µM; in test [3] it was 3.12 µM; in [4], 3.5 µM; in [5] it was 3.29 µM; in test [6], 3.25 µM. The TGI is 5.59 µM in test [7], 15.9 µM in test [8], > 100 µM in test [9] and 3.31 µM in [10].

Regarding `Oc1cc(-n2cccn2)c(O)cc1-n1cccn1`, the TGI is 31.3 µM in test [1]; 58 µM in test [2]; 49.6 µM in [3]; 69.3 µM in [4]; > 100 µM in test [5]; 55.1 µM in test [6]. The TGI was 72.1 µM in test [7], > 78.2 µM in [8], 73.3 µM in test [9] and 83.3 µM in [10].

For the compound `Fc1ccc(/C=N/n2c(-c3ccc(F)c(Cl)c3)n[nH]c2=S)cc1`, the GI50 is 19.6 µM in test [1]; 42.9 µM in test [2]; 24.1 µM in test [3]; 30.6 µM in [4]; 34.8 µM in test [5]; 19.7 µM in [6]. Besides, the GI50 is 19.8 µM in test [7], 12.9 µM in [9] and 21.8 µM in test [10]. Moreover, the TGI in test [1] is 38.3 µM; in test [2] it was > 100 µM; in test [3], 51 µM; in test [4], 83 µM; in test [5], > 100 µM; in [6], 43 µM. Further, the TGI is 43.2 µM in test [7], 27.9 µM in test [9] and 48.3 µM in test [10].

For the compound `Cc1cc(C)c(C2CNCc3cc4c(cc32)CNCC4c2c(C)cc(C)cc2C)c(C)c1` (stereo unspecified), the GI50 was 2.34 µg/mL in test [1]; 2 µg/mL in [2]; 3.22 µg/mL in test [3]; 1.83 µg/mL in test [4]; 1.82 µg/mL in [5]; 5.42 µg/mL in test [6]. For the same compound, the GI50 in test [7] is 2.25 µg/mL; in test [8] it was 2.54 µg/mL; in test [9], 0.303 µg/mL; in [10], 8.38 µg/mL. Moreover, the TGI in test [1] stood at 5.26 µg/mL; in [2], 3.96 µg/mL; in test [3] it was 26.9 µg/mL; in test [4], 4.27 µg/mL; in [5], 3.85 µg/mL; in [6], 20.1 µg/mL. The TGI in test [7] stood at 6.92 µg/mL; in [8], 5.59 µg/mL; in test [9] it was 1 µg/mL; in [10] it was 20.4 µg/mL.

In the case of `C[CH2][Hg][S]c1ccccc1C(=O)O`, the GI50 was 1.59 µM in [1]; 1.42 µM in [3]; 1.18 µM in test [4]; 1.67 µM in test [5]; 1.21 µM in test [6]; 1.28 µM in test [7]. Moreover, the GI50 was 1.56 µM in [8], 0.444 µM in [9] and 1.77 µM in test [10]. Besides, the TGI in [1] was determined as 2.95 µM; in test [3] it was 2.73 µM; in [4] it was 2.45 µM; in test [5], 3.08 µM; in test [6], 2.62 µM; in test [7], 4.24 µM. In addition, the TGI in test [8] was 3.03 µM; in test [9], 3.75 µM; in test [10], 3.26 µM.

`COc1ccc2c(-c3ccnc(Nc4cccc(OC(F)(F)F)c4)n3)cnn2n1`: the GI50 in [1] is 1.72 µM; in test [2] it was 1.1 µM; in test [3] it was 4.05 µM; in test [4], 1.55 µM; in test [5], 2.14 µM; in [6], 1.07 µM. In addition, the GI50 is 1.77 µM in test [7], 1.08 µM in [8], 0.904 µM in [9] and 3.53 µM in [10]. Also, the TGI is 5.48 µM in [1]; 9.56 µM in [2]; 12.2 µM in [3]; > 25 µM in test [4]; 8.82 µM in test [5]; 6.15 µM in [6]. For the same compound, the TGI in [7] was > 21 µM; in test [8] it was 5.18 µM; in test [9] it was > 25 µM; in test [10] it was > 21.1 µM.

Take `Cc1[nH]c(-c2cc(N)ccc2Cl)c2c1C(=O)CCCC2`: the GI50 was 3.24 µM in [1]; 6.15 µM in test [2]; 2.19 µM in [3]; 3.49 µM in test [4]; 3.39 µM in [5]; 2.32 µM in [6]. Moreover, the GI50 in test [7] is 3.63 µM; in [8] it was 5.75 µM; in test [9] it was 2.64 µM; in test [10] it was 6.54 µM. In addition, the TGI in [1] was > 100 µM; in [2], 30.4 µM; in [3] it was 31 µM; in test [4] it was > 100 µM; in [5], 16.5 µM; in test [6] it was > 100 µM. Further, the TGI in test [7] was 44.2 µM; in test [8], > 100 µM; in test [9], > 100 µM; in test [10] it was > 100 µM.
